52 molecules from patent publication US9920017B2, “Heterocyclic compounds as pesticides” (BAYER CROPSCIENCE AKTIENGESELLSCHAFT, priority 2014, dated 2018) can be followed below.

One data set relates to Meloidogyne incognita. In words: Meloidogyne incognita test (MELGIN). It is filed as in vivo. The note with it: 20 ppm; lettuce; after 14 days. How it is done: Meloidogyne incognita Test (MELGIN) Solvent: 125.0 parts by weight of acetone To produce a suitable active ingredient formulation, 1 part by weight of active ingredient is mixed with the stated amount of solvent and the concentrate is diluted with water to the desired concentration. Vessels are filled with sand, active ingredient solution, an egg/larvae suspension of the southern root-knot nematode (Meloidogyne incognita) and lettuce seeds. The lettuce seeds germinate and the plants develop. The galls develop on the roots. After 14 days, the nematicidal efficacy in % is determined by the formation of galls. 100% means that no galls were found; 0% means that the number of galls on the treated plants corresponds to the untreated control.

Data set [1] is described as follows: Determination of log P values by HPLC (reversed-phase C18). To be noted: for chromatographic logP: reversed-phase C18 HPLC column. It is filed as physicochemical. How it is done:
1) Description of Method for Determination of the Log P Values ([…]) The log P values given in the table were determined in accordance with EEC Directive 79/831 Annex V.A8 by HPLC (High Performance Liquid Chromatography) using a reversed-phase column (C 18). Temperature: 55° C. […] Gradient: from 10% eluent A/90% eluent B to 95% eluent A/5% eluent B in 4.25 min. Calibration was effected with unbranched alkan-2-ones (having 3 to 16 carbon atoms) with known log P values (log P values determined on the basis of the retention times by linear interpolation between two successive alkanones). The lambda max values were determined in the maxima of the chromatographic signals using the UV spectra from 200 nm to 400 nm.

The mark [2] stands for this setting: HPLC, reversed-phase C18, 55° C., final compounds table.
Where [3] appears, read: pH 3.4, HPLC-MS, preparation examples, read-out: log P.
Setting [4] is: HPLC, reversed-phase C18, 55° C., final compounds table, read-out: log P neutral.
The mark [5] stands for this setting: HPLC-MS, preparation examples, read-out: log P (neutral).
Setting [6] is: N-[1-aryl-1H-1,2,4-triazol-3-yl]benzamides, formula (1-9).
Where [7] appears, read: compounds of formula (IIa-1), R3 hydrogen.

Like-named read-outs stand apart in the source and are kept apart here.

In the case of `O=C(Nc1ncn(-c2c(Br)cccc2Br)n1)c1ccccc1C(F)(F)F` [Compound I-1-80], the “nematicidal efficacy (formation of galls)” value (from here on “nematicidal efficacy”) with Meloidogyne incognita is reported as 100%. Moreover, the “log P neutral” value in data set [1] (setting [2]) was 2.32. `CCc1ccccc1C(=O)Nc1ncn(-c2c(F)cc(F)cc2F)n1` [Compound I-1-64]: the “nematicidal efficacy” value with Meloidogyne incognita was 100%. Further, the “log P neutral” value in data set [1] (setting [2]) is given as 2.14. Turning to `O=C(Nc1ncn(-c2c(F)cccc2F)n1)c1ccccc1Br` [Compound I-1-12], the “nematicidal efficacy” value with Meloidogyne incognita was 90%. The “log P neutral” value in data set [1] (setting [2]) is 1.80.

Regarding `O=C(Nc1ncn(-c2ccccc2I)n1)c1ccccc1C(F)(F)F` [Compound I-1-75], the “nematicidal efficacy” value with Meloidogyne incognita is given as 90%. Moreover, the “log P neutral” value in data set [1] (setting [2]) was 2.20.

Regarding `O=C(Nc1ncn(-c2c(F)cccc2Cl)n1)c1ccccc1I` [Compound I-1-35], in the data set on Meloidogyne incognita, the “nematicidal efficacy” value is 100%. The “log P neutral” value in data set [1] (setting [2]) is recorded as 2.04. For `O=C(Nc1ncn(-c2ccccc2C(F)(F)F)n1)c1ccccc1C(F)(F)F` [Compound I-1-8] the same measures were 100% and 2.24. `O=C(Nc1ncn(-c2c(Cl)cccc2Cl)n1)c1ccccc1Cl` [Compound I-1-46]: the “nematicidal efficacy” value in the data set on Meloidogyne incognita stood at 90%. Besides, the “log P neutral” value in data set [1] (setting [2]) is on record as 2.03. For `O=C(Nc1ncn(-c2ncc(F)cc2F)n1)c1ccccc1C(F)(F)F` [Compound I-1-89, N-[1-(3,5-Difluoropyridin-2-yl)-1H-1,2,4-triazol-3-yl]-2-(trifluoromethyl)benzamide], the “nematicidal efficacy” value with Meloidogyne incognita was determined as 100%. For the same molecule, the chromatographic logP in data set [1] (setting [3]) and in data set [1] (setting [4]) was 1.76 in each case.

Regarding `O=C(Nc1ncn(-c2c(F)cc(F)cc2F)n1)c1ccccc1Cl` [Compound I-1-62], the “nematicidal efficacy” value in the data set with Meloidogyne incognita was 100%. For the same molecule, the “log P neutral” value in data set [1] (setting [2]) was 1.85. Taken in the same sequence, the figures for `O=C(Nc1ncn(-c2c(F)c(F)cc(F)c2F)n1)c1ccccc1C(F)(F)F` [Compound I-1-93] were 100% and 2.23.

With `O=C(Nc1ncn(-c2c(F)cccc2C(F)(F)F)n1)c1ccccc1Cl` [Compound I-1-27], the “nematicidal efficacy” value with Meloidogyne incognita is given as 90%. The “log P neutral” value in data set [1] (setting [2]) is listed as 2.06.

Regarding `O=C(Nc1ncn(-c2c(F)c(F)cc(F)c2F)n1)c1ccccc1Cl` [Compound I-1-92], the “nematicidal efficacy” value with Meloidogyne incognita came out at 90%. Moreover, the “log P neutral” value in data set [1] (setting [2]) is on record as 2.04. Taken in the same sequence, the figures for `CCc1ccccc1C(=O)Nc1ncn(-c2c(F)ccc(F)c2F)n1` [Compound I-1-60] were 100% and 2.21.

As for `O=C(Nc1ncn(-c2c(F)c(F)c(F)c(F)c2F)n1)c1ccccc1I` [Compound I-1-67], the “nematicidal efficacy” value in the data set on Meloidogyne incognita was determined as 90%. Also, the “log P neutral” value in data set [1] (setting [2]) is recorded as 2.43.

As for `O=C(Nc1ncn(-c2c(F)cccc2Br)n1)c1ccccc1I` [Compound I-1-32], the “nematicidal efficacy” value in the data set on Meloidogyne incognita amounted to 100%. Also, in data set [1] (setting [2]), the “log P neutral” value was found to be 2.08. As to `O=C(Nc1ncn(-c2c(F)cccc2F)n1)c1ccccc1[N+](=O)[O-]` [Compound I-1-22], the “nematicidal efficacy” value in the data set on Meloidogyne incognita was determined as 90%. Further, the “log P neutral” value in data set [1] (setting [2]) turned out to be 1.54. Take `CCc1cccc(Cl)c1-n1cnc(NC(=O)c2ccccc2C(F)(F)F)n1` [Compound I-1-42]: in the data set with Meloidogyne incognita, the “nematicidal efficacy” value stood at 90%. Further, the “log P neutral” value in data set [1] (setting [2]) was found to be 2.55. Turning to `Cc1cccc(Cl)c1-n1cnc(NC(=O)c2ccccc2C(F)(F)F)n1` [Compound I-1-40], in the data set with Meloidogyne incognita, the “nematicidal efficacy” value is listed as 90%. Besides, in data set [1] (setting [2]), the “log P neutral” value is listed as 2.26. On to `Cc1ccccc1C(=O)Nc1ncn(-c2c(F)cccc2F)n1` [Compound I-1-14], for which the “nematicidal efficacy” value in the data set on Meloidogyne incognita was found to be 100%. Also, the “log P neutral” value in data set [1] (setting [2]) came out at 1.72. Taken in the same sequence, the figures for `O=C(Nc1ncn(-c2c(F)ccc(F)c2F)n1)c1ccccc1Cl` [Compound I-1-58] were 100% and 1.91. Regarding `CCc1ccccc1C(=O)Nc1ncn(-c2c(F)cccc2F)n1` [Compound I-1-15], the “nematicidal efficacy” value with Meloidogyne incognita is on record as 100%. For the same molecule, the chromatographic logP in data set [1] (setting [5]) came to 2.05. For the molecule `O=C(Nc1ncn(-c2ccccc2Br)n1)c1ccccc1Cl` [Compound I-1-71], in data set [1] (setting [2]), the “log P neutral” value is 1.96. Turning to `O=C(Nc1ncn(-c2c(F)cccc2F)n1)c1ccccc1Cl` [Compound I-1-13, 2-Chloro-N-[1-(2,6-difluorophenyl)-1H-1,2,4-triazol-3-yl]benzamide], the “nematicidal efficacy” value with Meloidogyne incognita amounted to 100%. Also, the chromatographic logP in data set [1] (setting [5]) was determined as 1.73. On to `O=C(Nc1ncn(-c2c(F)cccc2F)n1)c1cc(F)ccc1C(F)(F)F` [Compound I-1-19], for which the “nematicidal efficacy” value with Meloidogyne incognita is recorded as 100%. The “log P neutral” value in data set [1] (setting [2]) was 2.09. With `COc1cccc(C)c1-n1cnc(NC(=O)c2ccccc2)n1` [1-9 R1=CH3 R2m=6-OCH3], the “logP (neutral)” value in data set [1] (setting [6]) was determined as 1.76. Regarding `Nc1ncn(-c2c(Br)cccc2Br)n1` [IIa-1 R1=Br R2m=6-Br], the “logP (neutral)” value in data set [1] (setting [7]) worked out at 1.2. With `Cc1cc(C)c(S(=O)(=O)CC(F)(F)F)cc1-n1cnc(NC(=O)c2ccccc2C(F)(F)F)n1` [Compound I-1-96], the “log P neutral” value in data set [1] (setting [2]) is recorded as 2.49. In the case of `O=C(Nc1ncn(-c2ccccc2Cl)n1)c1ccccc1Cl` [Compound I-1-5], the “log P neutral” value in data set [1] (setting [2]) was determined as 1.91.

As to `O=C(Nc1ncn(-c2ccccc2Cl)n1)c1ccccc1C(F)(F)F` [Compound I-1-3], the “log P neutral” value in data set [1] (setting [2]) came out at 2.10. Take `O=C(Nc1ncn(-c2ccccc2Br)n1)c1ccccc1` [1-9 R1=Br R2m=—]: in data set [1] (setting [6]), the “logP (neutral)” value is 1.80. With `Cc1cccc(Cl)c1-n1cnc(NC(=O)c2ccccc2)n1` [1-9 R1=Cl R2m=6-CH3], the “logP (neutral)” value in data set [1] (setting [6]) worked out at 1.92. As for `O=C(Nc1ncn(-c2c(Br)cc(F)cc2Br)n1)c1ccccc1C(F)(F)F` [Compound I-1-87], in the data set with Meloidogyne incognita, the “nematicidal efficacy” value is 90%. Besides, the “log P neutral” value in data set [1] (setting [2]) worked out at 2.46. As to `O=C(Nc1ncn(-c2ccccc2I)n1)c1ccccc1Cl` [Compound I-1-76], the “log P neutral” value in data set [1] (setting [2]) was determined as 2.01. With `O=C(Nc1ncn(-c2c(Cl)cccc2Cl)n1)c1ccccc1` [1-9 R1=Cl R2m=6-Cl], in data set [1] (setting [6]), the “logP (neutral)” value came to 1.8. Same read-out and setting: with `O=C(Nc1ncn(-c2ccccc2OC(F)(F)F)n1)c1ccccc1` [1-9 R1=OCF3 R2m=—] the figure was 2.15. `Nc1ncn(-c2c(F)cccc2I)n1` [IIa-1 R1=F R2m=6-I]: the “logP (neutral)” value in data set [1] (setting [7]) is recorded as 1.07. With `O=C(Nc1ncn(-c2ccccc2Cl)n1)c1ccccc1Br` [Compound I-1-4], the “nematicidal efficacy” value with Meloidogyne incognita was found to be 90%. Besides, the “log P neutral” value in data set [1] (setting [2]) is given as 1.97. In the case of `O=C(Nc1ncn(-c2c(Br)cc(F)cc2Br)n1)c1ccccc1Cl` [Compound I-1-88], the “log P neutral” value in data set [1] (setting [2]) came out at 2.26. The same measure, in the same setting: with `O=C(Nc1ncn(-c2c(F)cccc2F)n1)c1ccccc1OC(F)(F)F` [Compound I-1-17] the figure was 2.14. Take `Nc1ncn(-c2c(F)cccc2Br)n1` [1-(2-Bromo-6-fluorophenyl)-1H-1,2,4-triazol-3-amine]: the chromatographic logP in data set [1] (setting [5]) stood at 0.92. As to `CCc1ccccc1C(=O)Nc1ncn(-c2ccccc2C(F)(F)F)n1` [Compound I-1-95], the “log P neutral” value in data set [1] (setting [2]) was 2.33. As for `Nc1ncn(-c2c(Cl)cccc2Cl)n1` [IIa-1 R1=Cl R2m=6% Cl:], the “logP (neutral)” value in data set [1] (setting [7]) is 0.94. Same read-out and setting: as for `Nc1ncn(-c2cc(Cl)ccc2Cl)n1` [IIa-1 R1=Cl R2m=5% Cl:], the figure is 1.44. For `COc1cc(F)ccc1-n1nnc(NC(=O)c2ccccc2C(F)(F)F)n1` [Compound I-2-2, N-[2-(4-Fluoro-2-methoxyphenyl)-2H-tetrazol-5-yl]-2-(trifluoromethyl)benzamide], the chromatographic logP in data set [1] (setting [3]) and in data set [1] (setting [4]) was 2.35 each time. As to `O=C(Nc1ncn(-c2ccccc2F)n1)c1ccccc1C(F)(F)F` [Compound I-1-2], the “log P neutral” value in data set [1] (setting [2]) came to 2.06.

`O=C(Nc1ncn(-c2c(Br)cccc2Br)n1)c1ccccc1` [1-9 R1=Br R2m=6-Br]: the “logP (neutral)” value in data set [1] (setting [6]) turned out to be 2.00. `Nc1ncn(-c2c(F)c(F)c(F)c(F)c2F)n1` [IIa-1 R1=F R2m=3,4,5,6-F4]: the “logP (neutral)” value in data set [1] (setting [7]) was 1.31. Regarding `O=C(Nc1ncn(-c2cccc(Cl)c2Cl)n1)c1ccccc1Cl` [Compound I-1-52], the “log P neutral” value in data set [1] (setting [2]) was 2.29.

`O=C(Nc1ncn(-c2c(F)cccc2C(F)(F)F)n1)c1ccccc1` [N-{1-[2-Fluoro-6-(trifluoromethyl)phenyl]-1H-1,2,4-triazol-3-yl}benzamide]: the chromatographic logP in data set [1] (setting [5]) worked out at 1.95. For the molecule `Nc1ncn(-c2ccccc2F)n1` [IIa-1 R1=F R2m=—], the “logP (neutral)” value in data set [1] (setting [7]) was 0.86. For the molecule `Nc1ncn(-c2cccc(Cl)c2Cl)n1` [IIa-1 R1=Cl R2m=3-Cl], in data set [1] (setting [7]), the “logP (neutral)” value amounted to 1.41.

Consider `Nc1noc(-c2ccccc2)n1` [5-Phenyl-1,2,4-oxadiazol-3-amine], for which, in data set [1] (setting [5]), the chromatographic logP came out at 1.28.
